The supplement of paper PMC12317010
Counter-ions that a name gives are not always drawn.

Assay: collision cross section in nitrogen (drift tube, single-field); higher = larger gas-phase ion size
[1] = ion type: [M+Na], ion source: ESI, ion mode: Positive
[2] = ion type: [M+H], ion source: APCI, ion mode: Positive
[3] = ion type: [M+H], ion source: ESI, ion mode: Positive
[4] = ion type: [M-H], ion source: ESI, ion mode: Negative
[5] = ion type: [M+], ion source: APCI, ion mode: Positive
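Note: chemical standards at 10 µM analysed by drift tube IMS-QTOF MS in about 3.95 torr nitrogen, mean of duplicate injections differing ≤1%, mass error below 10 ppm.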

collision cross section in nitrogen [1] [Å²] | collision cross section in nitrogen [2] [Å²] | collision cross section in nitrogen [3] [Å²] | collision cross section in nitrogen [4] [Å²] | Structure (SMILES) | also measured
184.7 | – | – | – | CC(C)C[C@H](NC(=O)OCC1c2ccccc2-c2ccccc21)C(=O)O [N-(9-Fluorenylmethoxycarbonyl)-L-leucine] | –
162.8 | 148.7 | 148.3 | 154.5 | c1ccc(CNc2[nH]cnc3ncnc2-3)cc1 [N-Benzyl-1H-purin-6-amine] | –
189.3 | 177.9 | 176.5 | 185.6 | c1ccc(CNc2ncnc3c2ncn3C2CCCCO2)cc1 (stereo not drawn) [N-Benzyl-9-(tetrahydro-2H-pyran-2-yl)adenine] | –
– | – | – | 135.1 | CC(=O)NCc1ccccc1 [N-Benzylacetamide] | –
– | – | 134.9 | – | OCCNCc1ccccc1 [N-Benzylethanolamine] | –
– | 153.3 | 154 | – | CCCCNC1CC(C)(C)NC(C)(C)C1 [N-Butyl-2,2,6,6-tetramethylpiperidin-4-amine] | –
169.3 | – | – | 155 | CCCCNS(=O)(=O)c1ccc(C)cc1 [N-Butyl-p-toluenesulfonamide] | –
– | – | – | 148.3 | CCCCNS(=O)(=O)c1ccccc1 [N-Butylbenzenesulfonamide] | –
– | 136.3 | 136.7 | – | CCCCN(CCO)CCO [N-Butyldiethanolamine] | –
– | – | – | – | CCCC[n+]1ccccc1 [N-Butylpyridinium chloride] | collision cross section in nitrogen (ion source: ESI, ion mode: Positive, ion type: [M]+ (permanent cation)): 127.7 Å²
– | – | 142.8 | – | N#CCCN(CCO)c1ccccc1 [N-Cyanoethyl-hydroxyethyl aniline] | –
175.7 | – | – | 170.1 | CCCCCCCCCCCC(=O)N(C)CC(=O)O [N-Dodecanoyl-N-methylglycine] | –
171.3 | 153.5 | 152.7 | 155.6 | CCNC(=O)C1CC(C)CCC1C(C)C (stereo not drawn) [N-Ethyl-2-(isopropyl)-5-methylcyclohexanecarboxamide] | –
– | 139.5 | 140.5 | – | CCN(CCN)c1cccc(C)c1 [N-Ethyl-N-(3-methylphenyl)ethane-1,2-diamine] | –
– | 133.7 | 135.4 | – | CCN1C(=O)c2ccccc2C1=O [N-Ethylphthalimide] | –
– | 129 | – | – | CN1C(=O)c2ccccc2C1=O [N-Methylphthalimide] | –
– | 137.7 | 137.9 | – | OCCN(CCO)c1ccccc1 [N-Phenyl diethanolamine] | –
– | 143.1 | – | – | Nc1ccc(Nc2ccccc2)cc1 [N-Phenyl-1,4-benzenediamine] | –
– | 149.7 | – | 152.1 | c1ccc(Nc2cccc3ccccc23)cc1 [N-Phenyl-1-naphthylamine] | collision cross section in nitrogen [5]: 148.7 Å²
181.8 | 185.5 | 185.2 | – | CCCCCCCCCCCC(=O)NCCCN(C)C [N-[3-(Dimethylamino)propyl]dodecanamide] | –
162.2 | 153.4 | 152.9 | – | CNC(=O)C(c1ccccc1)c1ccccc1 [N-methyl-alpha-phenylbenzeneacetamide] | –
161.1 | 147.5 | 147.8 | – | CCn1cc(C(=O)O)c(=O)c2ccc(C)nc21 [Nalidixic acid] | –
233.3 | 231.8 | 230.6 | 233.1 | COc1ccc(S(=O)(=O)N2C(=O)[C@@](c3ccccc3OC)(N3C[C@H](O)C[C@H]3C(=O)N(C)C)c3cc(Cl)ccc32)c(OC)c1 [Nelivaptan] | –
– | – | – | 145.2 | CCC(C)(CCC(C)C)C(=O)O (stereo not drawn) [Neodecanoic acid] | –

collision cross section in nitrogen [1] [Å²] | collision cross section in nitrogen [2] [Å²] | collision cross section in nitrogen [3] [Å²] | collision cross section in nitrogen [4] [Å²] | Structure (SMILES) | also measured
180.7 | – | – | – | CC(C)(COC(=O)c1ccccc1)COC(=O)c1ccccc1 [Neopentyl glycol dibenzoate] | –
– | 125.7 | – | – | NC(=O)c1cccnc1 [Niacinamide] | –
211.2 | 213 | 212.6 | 214.2 | COC(=O)C1=C(C)NC(C)=C(C(=O)OCCN(C)Cc2ccccc2)C1c1cccc([N+](=O)[O-])c1 (stereo not drawn) [Nicardipine hydrochloride] | collision cross section in nitrogen [5]: 208.8 Å²
– | 137 | 137.7 | – | CN1CCC[C@H]1c1cccnc1 [Nicotine sulfate (2:1)] | –
– | – | 124.2 | – | O=C(O)c1cccnc1 [Nicotinic acid] | –
– | 119.2 | 119.8 | – | OCc1cccnc1 [Nicotinyl alcohol] | –
– | – | – | 162.8 | CC1(C)NC(=O)N(c2ccc([N+](=O)[O-])c(C(F)(F)F)c2)C1=O [Nilutamide] | –
195.5 | – | – | – | COC(=O)C1=C(C)NC(C)=C(C(=O)OCC(C)C)C1c1ccccc1[N+](=O)[O-] (stereo not drawn) [Nisoldipine] | –
178.1 | 171.3 | 171 | 181.9 | CNC(=C[N+](=O)[O-])NCCSCc1csc(CN(C)C)n1 [Nizatidine] | –
– | 155.8 | 156.2 | – | CN1Cc2c(N)cccc2C(c2ccccc2)C1 (stereo not drawn) [Nomifensine] | –
– | – | – | 140.7 | O=C(O)CCCCCCCC(=O)O [Nonanedioic acid] | –
– | – | – | 146.2 | CCCCCCCCC(=O)O [Nonanoic acid] | –
– | – | – | 167.5 | CC(Cc1ccc(O)c(O)c1)C(C)Cc1ccc(O)c(O)c1 (stereo not drawn) [Nordihydroguaiaretic acid] | –
– | – | 178.1 | – | C#C[C@]1(O)CC[C@H]2[C@@H]3CCC4=CC(=O)CC[C@@H]4[C@H]3CC[C@@]21C [Norethindrone] | –
– | – | – | 177.2 | CCCCCCCCCCCCCCCCCC(=O)O [Octadecanoic acid] | –
– | – | – | 189.8 | CCCCCCCCCCCCCCCCCCOS(=O)(=O)O [Octadecyl sulfate sodium salt] | –
184.1 | – | – | – | CCCCC(CC)COC(=O)C=Cc1ccc(OC)cc1 (stereo not drawn) [Octinoxate] | –
– | 186.3 | – | 190 | CC(C)(C)CC(C)(C)c1ccc(O)c(-n2nc3ccccc3n2)c1 [Octrizole] | –
181.2 | – | – | 180.1 | CCCCCCCCO[C@@H]1O[C@H](CO)[C@@H](O)[C@H](O)[C@H]1O [Octyl beta-D-glucopyranoside] | –
219.1 | – | 222.5 | – | CCCCCCCCCCOC(=O)c1ccccc1C(=O)OCCCCCCCC [Octyl decyl phthalate] | –
– | – | – | 171.5 | CCCCCCCCOC(=O)c1cc(O)c(O)c(O)c1 [Octyl gallate] | –
181.5 | – | – | 168 | CCCCCCCCOC(=O)c1ccccc1C(=O)O [Octyl hydrogen phthalate] | –
– | – | – | 162.2 | CCCCCCCCOC(=O)c1ccccc1O [Octyl salicylate] | –
– | – | – | 169.1 | CCCCCCCCOC(=O)c1ccc(O)cc1 [Octylparaben] | –

Structure (SMILES) | collision cross section in nitrogen [1] [Å²] | collision cross section in nitrogen [2] [Å²] | collision cross section in nitrogen [3] [Å²] | collision cross section in nitrogen [4] [Å²] | also measured
CCNS(=O)(=O)C(F)(F)C(F)(F)C(F)(F)C(F)(F)C(F)(F)C(F)(F)C(F)(F)C(F)(F)F [N-Ethylperfluorooctane sulfonamide] | – | – | – | 180.4 | –
CN(N=O)c1ccccc1 [N-Methyl-N-nitrosoaniline] | – | 124.5 | 125.1 | – | –
c1ccc(Nc2ccc3ccccc3c2)cc1 [N-Phenyl-2-naphthylamine] | – | 150 | 151.3 | – | collision cross section in nitrogen [5]: 149.2 Å²
CCCCCCCCC(=O)NCc1ccc(O)c(OC)c1 [N-Vanillylnonanamide] | 178 | – | – | – | –
CCN(CC)C(=O)C(C)Oc1cccc2ccccc12 (stereo not drawn) [Napropamide] | 172 | 163.8 | 164.2 | – | –
O=C(O)c1ccccc1C(=O)Nc1cccc2ccccc12 [Naptalam] | 170.9 | – | – | 168.6 | –
Cc1cccc(C)c1NC(=O)CN1CCCC1=O [Nefiracetam] | 167.3 | – | – | – | –
CC(C)(COCC1CO1)COCC1CO1 (stereo not drawn) [Neopentyl glycol diglycidyl ether] | 148.2 | – | – | – | –
COc1cc(OC)nc(NC(=O)NS(=O)(=O)c2ncccc2C(=O)N(C)C)n1 [Nicosulfuron] | 196.2 | – | – | – | –
O=[N+]([O-])c1ccc([As](=O)(O)O)cc1 [Nitarsone] | – | – | 144.4 | 138.9 | –
CCCN(CCC)c1c([N+](=O)[O-])cc(S(C)(=O)=O)cc1[N+](=O)[O-] [Nitralin] | – | – | – | 177 | –
O=[N+]([O-])O [Nitric acid, calcium salt (2:1)] | – | – | – | 104.5 | –
CNc1cnn(-c2cccc(C(F)(F)F)c2)c(=O)c1Cl [Norflurazon] | 171.9 | 162.7 | 162.4 | 160.9 | –
O=C(NC(=O)c1c(F)cccc1F)Nc1ccc(OC(F)(F)C(F)OC(F)(F)F)c(Cl)c1 (stereo not drawn) [Novaluron] | – | – | – | 204.4 | –
OC(c1ccc(F)cc1)(c1cncnc1)c1ccccc1Cl (stereo not drawn) [Nuarimol] | – | 171.6 | 171.2 | 170.7 | –
CCOP(=S)(S)OCC [O,O′-Diethyl hydrogen dithiophosphate] | – | – | – | 135 | –
CCCCCCCCP(=O)(O)O [Octylphosphonic acid] | – | – | – | 149.9 | –
